# Activity calls are given as the source filed them. For most assays here, no stated cut-off is given here; in the data, actives have a measured EC50 and inactives only a lower limit.
# Columns and labels:
# [1] = Luminescence Cell-Based Dose Response to Identify Activators of 5'UTR Stem-Loop Driven Prion Protein mRNA Translation in H4-C Neuroglioblastoma Cells. [Related pubchem assays: 1829 (Project Summary), 1814 (Primary HTS)]; format: functional
# [2] = Luminescence Cell-Based Dose Confirmation HTS to Identify Activators of 5'UTR Stem-Loop Driven Alpha-Synuclein mRNA Translation in H4 Neuroglioblastoma Cells. [Related pubchem assays: 1829 (Project Summary), 1814 (Primary HTS)]; format: functional
# [3] = Luminescence Cell-Based Dose Response HTS to Identify Activators of Luciferase Translation or Activity in H4 […] Cells. [Related pubchem assays: 1829 (Project Summary), 1814 (Primary HTS)]; format: functional
# H4 = assay: Luminescence Cell-Based Dose Response HTS to Identify Activators of 5'UTR Stem-Loop Driven Prion Protein mRNA Translation in H4 Neuroglioblastoma Cells. [Related pubchem assays: 1829 (Project Summary), 1814 (Primary HTS)]; format: functional; settings: Homo sapiens
# [4] = Luminescence Cell-Based Dose Response to Identify Activators of Luciferase Translation or Activity in H4-C Neuroglioblastoma Cells. [Related pubchem assays: 1829 (Project Summary), 1814 (Primary HTS)]; format: functional
# [5] = Luminescence Cell-Based Dose Confirmation to Identify Activators of 5'UTR Stem-Loop Driven Alpha-Synuclein mRNA Translation in H4 Neuroglioblastoma Cells. [Related pubchem assays: 1829 (Project Summary), 1814 (Primary HTS)]; format: functional
# HeLa = assay: ATP-based viability loss in HeLa cells – cell-based, CellTiter-Glo luminescence, cherry-pick samples, cytotoxicity control for MITF activator project, dose response (AID 540259); format: functional; settings: Homo sapiens
# Bcl-2-related protein A1 [6] = target: T1, Bcl-2-related protein A1 (Mus musculus, UniProt Q07440); assay: small-molecule antagonists of Bfl-1/BH3 interaction – biochemical, TR-FRET, mouse Bfl-1, confirmation (AID 621);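 further: TR-FRET binding of GST-Bfl-1 to FITC-labelled Bid peptide via terbium antibody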
# Bcl-2-related protein A1 [7] = target: T1, Bcl-2-related protein A1; assay: Bfl-1 binding inhibitors, SAR follow-up, biochemical, fluorescence polarization (AID 1070)
# [8] = tested on: Streptococcus sp. 'group A'; assay: Streptococcus pyogenes SK(-)GAS viability under kanamycin – luminescence, BacTiterGlo, confirmation, counter-screen for streptokinase expression inhibitor project, dose response (AID 1900); format: functional, organism-based
# Streptokinase A = target: T2, Streptokinase A (Streptococcus pyogenes serotype M1, UniProt P10520); assay: viability-normalized secreted streptokinase activity reduction – plasminogen activation absorbance, OD405, dose response (AID 1914); format: functional, Streptococcus pyogenes M1 GAS;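 further: secreted streptokinase activity via plasminogen activation per viability signal from cell pellet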
# T2 sequence (P10520 whole entry): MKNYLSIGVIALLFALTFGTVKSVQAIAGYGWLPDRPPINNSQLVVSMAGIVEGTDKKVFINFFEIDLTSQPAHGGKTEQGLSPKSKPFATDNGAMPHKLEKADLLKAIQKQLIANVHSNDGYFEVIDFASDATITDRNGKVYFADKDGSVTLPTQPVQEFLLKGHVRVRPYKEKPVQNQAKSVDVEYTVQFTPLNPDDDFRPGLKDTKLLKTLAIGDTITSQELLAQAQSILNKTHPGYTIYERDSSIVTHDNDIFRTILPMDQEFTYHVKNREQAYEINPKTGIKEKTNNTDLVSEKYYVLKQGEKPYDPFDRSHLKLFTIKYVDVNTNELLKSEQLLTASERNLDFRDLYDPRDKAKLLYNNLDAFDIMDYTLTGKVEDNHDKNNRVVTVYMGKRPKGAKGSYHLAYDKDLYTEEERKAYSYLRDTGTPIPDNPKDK
# [9] = target: Protein-tyrosine kinase 2-beta (Homo sapiens, UniProt Q14289);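 further: potency of inhibitors of PYK2 kinase phosphorylation of poly-GT substrate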
# Streptococcus = assay: GAS UMAA2166 growth inhibition – luminescence, BacTiterGlo, counter-screen for streptokinase expression inhibitor project, dose response (AID 1915); format: functional, organism-based;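 further: potency for reduction of bacterial viability or growth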
# [10] = target: T3, Microphthalmia-associated transcription factor (Homo sapiens, UniProt O75030); assay: reducers of TRPM1 reporter luminescence, concentration series – cell-based, SK-MEL-5, cherry-picked, set 3, MITF inhibitor project, dose response (AID 493073); format: functional;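 further: SK-MEL-5 melanoma cells with luciferase driven by the MITF target TRPM1 promoter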
# T3 sequence (O75030 whole entry): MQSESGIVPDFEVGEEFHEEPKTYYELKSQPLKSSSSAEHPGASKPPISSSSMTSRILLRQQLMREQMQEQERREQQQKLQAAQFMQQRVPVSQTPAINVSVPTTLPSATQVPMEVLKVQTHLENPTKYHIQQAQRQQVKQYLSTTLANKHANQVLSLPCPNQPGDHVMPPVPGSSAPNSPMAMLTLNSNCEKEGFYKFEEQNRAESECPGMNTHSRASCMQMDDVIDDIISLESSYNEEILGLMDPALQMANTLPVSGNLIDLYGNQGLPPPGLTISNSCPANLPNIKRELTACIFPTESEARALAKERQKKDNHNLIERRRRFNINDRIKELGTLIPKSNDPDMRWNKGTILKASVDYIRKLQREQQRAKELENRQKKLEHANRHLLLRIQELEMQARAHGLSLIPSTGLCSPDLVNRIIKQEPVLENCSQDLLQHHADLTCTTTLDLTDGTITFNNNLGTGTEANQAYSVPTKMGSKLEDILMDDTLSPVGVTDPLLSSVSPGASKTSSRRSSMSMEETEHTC
# T1 sequence (Q07440 whole entry): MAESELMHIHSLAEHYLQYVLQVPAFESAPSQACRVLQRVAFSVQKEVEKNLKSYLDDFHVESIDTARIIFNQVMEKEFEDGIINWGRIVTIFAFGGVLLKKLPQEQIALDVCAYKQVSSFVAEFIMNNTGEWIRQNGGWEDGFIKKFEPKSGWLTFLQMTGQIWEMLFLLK
# Sequence of Protein-tyrosine kinase 2-beta (Q14289 whole entry): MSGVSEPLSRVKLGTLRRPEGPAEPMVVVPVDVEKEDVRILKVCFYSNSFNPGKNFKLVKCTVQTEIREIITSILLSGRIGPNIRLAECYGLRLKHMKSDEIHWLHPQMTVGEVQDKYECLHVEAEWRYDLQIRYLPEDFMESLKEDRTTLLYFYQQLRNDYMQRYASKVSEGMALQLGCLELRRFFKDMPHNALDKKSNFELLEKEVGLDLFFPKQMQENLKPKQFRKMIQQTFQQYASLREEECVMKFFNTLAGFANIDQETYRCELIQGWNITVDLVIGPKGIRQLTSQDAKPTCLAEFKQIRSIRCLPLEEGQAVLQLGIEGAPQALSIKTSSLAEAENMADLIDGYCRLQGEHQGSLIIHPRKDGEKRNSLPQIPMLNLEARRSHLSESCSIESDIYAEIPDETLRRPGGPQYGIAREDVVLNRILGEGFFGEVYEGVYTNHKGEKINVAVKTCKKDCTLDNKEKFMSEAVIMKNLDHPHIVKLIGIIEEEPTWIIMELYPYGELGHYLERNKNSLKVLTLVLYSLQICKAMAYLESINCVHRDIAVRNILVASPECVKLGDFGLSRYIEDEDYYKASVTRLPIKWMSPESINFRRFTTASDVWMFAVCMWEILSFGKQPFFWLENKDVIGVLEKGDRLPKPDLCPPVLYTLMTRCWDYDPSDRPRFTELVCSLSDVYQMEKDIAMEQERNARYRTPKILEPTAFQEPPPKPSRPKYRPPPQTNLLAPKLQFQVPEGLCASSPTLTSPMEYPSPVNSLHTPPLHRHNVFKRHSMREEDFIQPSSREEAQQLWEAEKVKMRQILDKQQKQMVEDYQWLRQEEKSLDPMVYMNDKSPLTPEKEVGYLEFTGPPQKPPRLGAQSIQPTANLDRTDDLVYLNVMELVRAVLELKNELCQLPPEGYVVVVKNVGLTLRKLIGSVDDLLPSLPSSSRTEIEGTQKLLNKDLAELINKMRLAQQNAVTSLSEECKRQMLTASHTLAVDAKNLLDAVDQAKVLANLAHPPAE
smiles,measurement,setting,value
CS(=O)(=O)N1N=C(c2ccc(Br)cc2)CC1c1ccc2c(c1)OCO2 (centres undefined),EC50,[1],0.328 µM (active)
same,EC50,[2],0.174 µM (active)
same,EC50,[3],< 0.1 µM (active)
same,EC50,H4,< 0.1 µM (active)
same,EC50,[4],0.344 µM (active)
same,EC50,[5],0.467 µM (active)
same,AC50,HeLa,61.3 µM (active)
Clc1ccc(-n2nnc(-c3cc4ccccc4nc3Cl)n2)cn1,IC50,Bcl-2-related protein A1 [6],> 100 µM (not active)
same,IC50,Bcl-2-related protein A1 [7],> 100 µM (not active)
CCOc1cc(/C=C2/NC(=S)NC2=O)ccc1OCc1ccc([N+](=O)[O-])cc1,EC50,[8],3.85 µM (active)
same,EC50,Streptokinase A,8.31 µM (active)
same,IC50,[9],3.76 µM (active)
same,EC50,Streptococcus,> 150 µM (not active)
same,AC50,[10],8.19 µM (active)
